Experimental data published in patent US20130183686A1, “METHOD OF EVALUATING IMMUNOSUPPRESSION” (priority 2008, published 2013).
“Also recorded” adds a separate entry of the source.

Tests used:
Format in all cases: cell-based, human
[1] = test system: NFAT; test: PMA/Ionomycin-induced NFAT translocation in healthy donor cells, imaging flow cytometry
[2] = test system: NFkB; test: PMA/Ionomycin-induced NFkB activation in healthy donor CD4+ cells in plasma, imaging flow cytometry; conditions: increasing concentrations of Tacrolimus (FIG. 6)
[3] = test system: NFAT; test: PMA/Ion-induced NFAT activation potential in CD4+ and CD8+ T cells of stable transplant recipients receiving tacrolimus
Experimental: Protocol to measure the NF-κB and/or NFAT activation potential in immunophenotypically defined cell populations: Obtain peripheral blood sample in sodium heparin container. Keep PBL sample at ambient room temperature. Prepare sufficient number of 15 mL polypropylene tubes (10-9152N, Niagara Scientific, Lancaster, N.Y.) to accommodate the number of variables to be tested. One tube is needed for the unstimulated control, one for the unstimulated cell line control (HL60 […] or Jurkat) and two (1 for HL60 and 1 for patient sample) for each of the stimulation conditions to be tested (e.g. PMA/Ion, TNFα, CD3/CD28, etc.). Aliquot 500 μl whole blood per tube for the patient samples. For cell line controls, add enough volume from culture flask to yield 2×10^6 cells/tube. […]
Cell line controls are washed in 1× Phosphate Buffered saline solution (1×PBS) (Mediatech, Herndon, Va.), and then fixed by adding 1 ml of a 4% solution of methanol free Formaldehyde (Polysciences, Warrington, Pa.) at room temperature for 10 minutes. Cells are washed twice in 1×PBS, spin, and resuspend cell pellets in residual volume (they are now ready to be probed for NF-κB and/or NFAT and are left at room temperature until whole blood samples are ready). […] Cells are now ready to be probed for NF-κB and/or NFAT. […] Samples are then washed in 1×PBS and are ready to be run on the imaging cell sorting machine. […]

[4] = test system: NFAT1; test: PMA/Ionomycin-induced NFAT1 translocation in Jurkat cells incubated in patient plasma obtained after in vivo tacrolimus administration; conditions: patient plasma obtained between 1 h and 12 h after tacrolimus administration (FIGS. 8 and 9)

C=CC[C@@H]1/C=C(\C)C[C@H](C)C[C@H](OC)[C@H]2O[C@@](O)(C(=O)C(=O)N3CCCC[C@H]3C(=O)O[C@H](/C(C)=C/[C@@H]3CC[C@@H](O)[C@H](OC)C3)[C@H](C)[C@@H](O)CC1=O)[C@H](C)C[C@@H]2OC [tacrolimus]
NFAT translocation potential ([1]; healthy donor CD4+ cells in plasma, increasing concentrations of Tacrolimus (FIG. 6)): dose-dependent decrease
inhibition of PMA/Ion-induced NFAT translocation ([1]; healthy donor peripheral blood, CD4+ cells in culture medium, increasing concentration of tacrolimus (FIG. 5)): dose-dependent inhibition
correlation between extracellular concentrations and PMA/Ionomycin-induced NFAT1 activation potential ([1]; in vitro, spiked into tissue culture media, plasma or whole blood, naive cells (Jurkat or healthy donor CD4+ or CD8+ T cells)): a strong correlation is observed
inhibitory effect on NFkB activation [2]: less pronounced for NFkB but can be seen at higher drug concentrations
correlation between trough tacrolimus levels and NFAT activation potential ([3]; CD4+ and CD8+ cells of transplant recipients chronically exposed to tacrolimus): Neither for CD4+ nor CD8+ cells was a correlation found; also recorded: no statistically significant dose-response relationship was observed
difference in NFAT activation potential before (0 h) and after (4 h) a dose ([3]; CD4+ or CD8+ cells of stable transplant recipients): did not determine a significant difference
inhibitory effect on NFAT in cells naive to previous tacrolimus exposure [4]: closely mirrors that of the expected plasma levels; also recorded: a good dose-response was observed
